Measurements published in EP0376166A1, “Condensed quinoline system compound and process of preparation thereof” (MECT CORPORATION, priority 1988, dated 1990).
Converted amounts (≈) assume the structure as drawn.

Key:
KB Cell = assay: Inhibition of multiplication (growth) of KB cells, in vitro; type: cell-based, human; details: Homo sapiens, 72 h, concentration for 50% growth inhibition vs control, compound added Day 1, cells counted Day 4, read-out: Conc.(ED50)
Protocol: KB cells, carcinomatous cell tumors, were transferred to in vitro floatation incubator systems, and added respectively with compounds of Examples 1 to 33. The results of cultivation added with these compounds were compared with the results of the control which was not added with any compound.
Cell used: KB Cell (Originating from human mouth epidermal cancer) Culture medium: Eagles minimal essential medium (MEM) supplemented with 10% calf serum Cultivation: 37°C carbon dioxide gas incubator (5% CO₂)
Day 0: KB cells were diluted in the culture medium to adjust the KB cell density to 2 x 10⁴/ml. Three ml of the cell suspension was inoculated in each of 60 mm plastic dishes. Two dishes per standard dosage were used. Day 1: Test compound was added to the medium so that the final concentrations were set to 100, 30, 10, 3 and 1 µg/ml. Day 4: Cells were scraped off from the dish using trypsin, and the cell number was countered using a Corter counter.
In generally accordance with the stipulations set forth by the National Cancer Institute (NCI), U.S.A., the concentration of compound necessary for exerting 50% growth inhibition (ED₅₀) compared to the control was determined. A compound was judged as effective when ED₅₀ was less than 4 µg/ml.

P-388 = assay: Prolongation of life span in P-388 implanted mice; type: in vivo, CDF mouse; details: for response vs control in vivo at 12.5 mg/kg / response vs control in vivo at 25 mg/kg / response vs control in vivo at 50 mg/kg / response vs control in vivo at 100 mg/kg / response vs control in vivo at 200 mg/kg / response vs control in vivo at 400 mg/kg: P388, ip, T/C %, Day 1 and Day 5, P-388 10⁶ cells/mouse i.p., read-out: Ratio of Life Prolongation (%); for response vs control in vivo at 50 mg/kg: dosage 50 mg/kg; for cure: cured mice per group of 6
Protocol: Animal used: CDF mouse (6 mice/group) Tumor: P-388 Number of implanted cells: 10⁶ cells/mouse Implanted site: i.p. Day of administration: Day 1 and Day 5 Dosage: LD₅₀ or 400 mg/kg/day at the maximum

Row | SMILES | IC50 (KB Cell) [µg/mL] | response vs control in vivo at 12.5 mg/kg (P-388; dosage 12.5 mg/kg) [%] | response vs control in vivo at 25 mg/kg (P-388; dosage 25 mg/kg) [%] | response vs control in vivo at 50 mg/kg (P-388) [%] | cure (P-388; dosage 12.5 mg/kg) | cure (P-388; dosage 25 mg/kg) | response vs control in vivo at 100 mg/kg (P-388; dosage 100 mg/kg) [%] | response vs control in vivo at 200 mg/kg (P-388; dosage 200 mg/kg) [%] | cure (P-388; dosage 200 mg/kg) | response vs control in vivo at 400 mg/kg (P-388; dosage 400 mg/kg) [%] | cure (P-388; dosage 100 mg/kg) | cure (P-388; dosage 400 mg/kg)
1 | COc1cc(NS(C)(=O)=O)ccc1Nc1c2ccccc2nc2c1[nH]c1ccc(NC3OC(COC(C)=O)C(OC(C)=O)C(OC(C)=O)C3OC(C)=O)cc12 (centres unmarked) [Compound 23, N-{4-[(7-(2,3,4,6-tetra-O-acetylglycosyl-1-amino)-10H-indolo[3,2-b]quinoline-11-yl)amino]-3-methoxyphenyl} methanesulfonamide] | < 0.3 | 300 | 148 | 58 | 2/6 | 1/6 |  |  |  |  |  | 
2 | COc1cc(NS(C)(=O)=O)ccc1Nc1c2ccccc2nc2c1[nH]c1ccc(NC3OC(CO)C(O)C(O)C3O)cc12 (centres unmarked) [Compound 24, N-{4-[(7-(glycosyl-1-amino)-10H-indolo[3,2-b]quinoline-11-yl)amino]-3-methoxyphenyl} methanesulfonamide] | < 0.3 | 213 | 145 | 90 | 2/6 |  |  |  |  |  |  | 
3 | COc1cc(NS(C)(=O)=O)ccc1Nc1c2ccccc2nc2c1[nH]c1ccc(NC(C)=O)cc12 [Compound 25] | < 0.3 | 135 | 174 |  |  |  |  |  |  |  |  | 
4 | COc1cc(NS(C)(=O)=O)ccc1Nc1c2ccccc2nc2c1[nH]c1ccc(NS(C)(=O)=O)cc12 [Compound 26, 2-methanesulfonamide-6-(4-methanesulfonamide-2-methoxyanilino)indolo[3,2-b]quinoline] | < 0.3 | 126 | 111 |  |  |  |  |  |  |  |  | 
5 | COc1cc(NS(C)(=O)=O)ccc1Nc1c2cccc(C)c2nc2c1oc1ccccc12 [Compound 27, 6-(4-methanesulfonamide-2-methoxyanilino)-10-methylbenzofurano[3,2-b]quinoline] | 0.38 (≈ 0.849 µM) |  |  |  |  |  | 230 | 250 | 1/6 |  |  | 
6 | COc1cc(NS(C)(=O)=O)ccc1Nc1c2cccc(C)c2nc2c1oc1cccc(C)c12 [Compound 28, 6-(4-methanesulfonamide-2-methoxyanilino)-1,10-dimethylbenzofurano[3,2-b]quinoline] | < 0.3 |  |  | 204 |  |  | 269 |  |  |  |  | 
7 | COc1cc(NS(C)(=O)=O)ccc1Nc1c2cccc(C)c2nc2c1oc1cc(C)ccc12 [Compound 29, 6-(4-methanesulfonamide-2-methoxyanilino)-3,10-dimethylbenzofurano[3,2-b]quinoline] | < 0.3 |  |  |  |  |  | 204 | 269 | 1/6 | 76 | 1/6 | 
8 | COc1cc(NS(C)(=O)=O)ccc1Nc1c2ccccc2nc2c1oc1cccc(C)c12 [Compound 30, 6-(4-methanesulfonamide-2-methoxyanilino)-1-methylbenzofurano[3,2-b]quinoline] | 1.5 (≈ 3.35 µM) |  |  |  |  |  | 105 | 108 |  | 151 |  | 
9 | COc1cc(NS(C)(=O)=O)ccc1Nc1c2ccccc2nc2c1oc1cc(C)ccc12 [Compound 31, 6-(4-methanesulfonamide-2-methoxyanilino)-3-methylbenzofurano[3,2-b]quinoline] | < 0.3 |  |  |  |  |  | 147 | 175 | 1/6 | 219 |  | 1/6
10 | COc1cc(NS(C)(=O)=O)ccc1Nc1c2cccc(C)c2nc2c1sc1ccccc12 [Compound 32, 6-(4-methanesulfonamide-2-methoxyanilino)-10-methylbenzothieno[3,2-b]quinoline] | 1.4 (≈ 3.02 µM) |  |  |  |  |  | 137 | 167 |  | 228 |  | 
11 | COc1cc(NS(C)(=O)=O)ccc1Nc1c2ccccc2nc2c1sc1cccc(C)c12 [Compound 33, 6-(4-methanesulfonamide-2-methoxyanilino)-1-methylbenzothieno[3,2-b]quinoline] | < 0.3 |  |  |  |  |  | 191 | 255 | 1/6 | 280 |  | 1/6
